# Experiments:
# MSSA or MRSA strains = test: Neutropenic-mouse thigh infection model, MSSA or MRSA strains, 72 h post-infection; assay type: in vivo, Staphylococcus aureus; conditions: independently of their MIC
# Description: Methods: Thigh infection was established for 14 clinical SA isolates (3 MSSA and 11 MRSA; MICs 0.0015 to 2 μg/mL) in neutropenic CD-1 mice (n=3/group) with 5×10^5 colony forming units (CFU) of cells. Single intravenous doses of ORI (0.5 to 40 mg/kg) were tested against one MSSA and one MRSA strain. […] Both thighs were harvested and CFU counts were evaluated after 24 h (single doses) or 72 h (HEQ doses) treatment.
# In vivo studies: All studies were performed in accordance with protocols that were approved by the Institutional Animal Care and Use Committee. Thigh infection was established for 14 clinical S. aureus isolates in neutropenic CD-1 mice (19-21 g, n=3/group) with 5×10^5 colony forming units (CFU) of cells in both thighs. In the single dose-response study, the number of bacteria/thigh was monitored 24 h post-infection (PI). In the human equivalent (HEQ) dose-ranging study, the bacterial titer was determined in mouse thighs at 2, 4, 8, 12, 24, 48 and 72 h PI. Thighs were serially diluted and plated on Baird-Parker agar plates to determine the bacterial titer. The limit of detection was 1.69 Log10 CFU/thigh. Bacterial titer decreases were calculated (compared to starting inoculum) in thighs at 72 h PI for each HEQ dose regimen of ORI.
# Antibiotherapy: 1) In the single dose response study, mice were treated intravenously (IV) with ORI at doses ranging from 0.4 to 40 mg/kg at lh PI. […]
# S. aureus = test: MIC by broth microdilution with 0.002% polysorbate-80, baseline isolates of MITT population; assay type: cell-based; conditions: Staphylococcus aureus; all S. aureus
# Description: (§1) Blood and infection site cultures were obtained within three days of enrollment (often done at the time of enrollment). End-of-therapy, TOC, and late follow-up (or at early relapse) cultures were obtained from the infection site if clinically indicated. […] Specimens were cultured and pathogens were identified at each investigative site's certified laboratory. All isolated gram-positive pathogen(s) that were obtained from the infection site at baseline/randomization and up to and including the TOC time point were subcultured and sent to a central laboratory (Covance Clinical Laboratories, Indianapolis, Ind.) for confirmatory identification and susceptibility testing. In cases of discrepancy between the local and the central laboratory, central laboratory results were used.
# (§2) At least one gram-positive organism was isolated from the infection site at baseline in 209 patients (69.2%) in the ITT population. The most commonly isolated pathogen was S. aureus, which was isolated from 87.6% (183/209) of MITT patients. MRSA was isolated in 49% (103/209) of MITT patients. The other three most common pathogens identified in the MITT population were Streptococcus pyogenes (5.7%, 12/209), Streptococcus agalactiae (3.8%, 8/209) and Enterococcus faecalis (3.8%, 8/209). The range of oritavancin minimum inhibitory concentrations (MICs) for S. aureus in the MITT population, as assessed using broth microdilution with 0.002% polysorbate-80, was 0.008 to 0.5 μg/mL.
# MRSA = test: as above; assay type: cell-based; conditions: Staphylococcus aureus; MRSA subset
# Description: as §1, §2
# MSSA = test: as above; assay type: cell-based; conditions: Staphylococcus aureus; MSSA subset
# Description: as §1, §2
# Streptococcus agalactiae = test: Phase 2 cSSSI study: cure rate by baseline pathogen; assay type: in vivo; conditions: Streptococcus agalactiae at baseline
# Description: (§3) The primary efficacy endpoint was the clinical response in the CE population at TOC, which occurred 20 to 28 days after study enrollment on Day 1. Clinical response was determined by the investigator as part of the end-of-therapy, TOC, and late follow-up procedures by assessing signs and symptoms including fever, pain, tenderness, erythema, induration, edema, purulent drainage, eschar, and devitalized tissue. A clinical response of cure, improvement, failure, or indeterminate was assigned at end-of-therapy and TOC by the investigator based on clinical signs and symptoms. At late follow-up, the investigator could assign the clinical response of relapse in addition to cure, improvement, or indeterminate. Only patients with a clinical response of cure or improvement at TOC were assessed for clinical response at late follow-up.
# (§4) Cure was defined as resolution of purulent drainage, pain, edema, fever, erythema, tenderness, and induration. Serous drainage or aspirate and/or granulation tissue could be present. Improvement was defined as resolution of purulent drainage and, in the case of cellulitis, cessation of fever and pain. Residual erythema, edema, pain (in the case of wound or abscess), tenderness, and/or induration could be present as could serous drainage, granulation tissue, eschar, and/or devitalized tissue. Failure included any of the following: presence of purulent drainage (or aspirate) and/or fever; the unanticipated need for abscess drainage or removal of sutures (for treatment of infection)>48 hours after initiation of study therapy; or treatment with nonstudy systemic antibiotic having activity against gram-positive pathogen(s) for the primary infection site or use of topical antibiotics at the site of primary infection 24 hours or more after initiation of study medication therapy.
# as §1
# Enterococcus faecalis = test: as above; assay type: in vivo; conditions: Enterococcus faecalis at baseline
# Description: as §3, §4, §1
# Staphylococcus aureus = test: as above; assay type: in vivo; conditions: S. aureus at baseline, TOC
# Description: as §3, §4, §1
# Streptococcus pyogenes = test: as above; assay type: in vivo; conditions: Streptococcus pyogenes at baseline
# Description: as §3, §4, §1
# [1] = test system: S. aureus (MSSA, MRSA, and VRSA); conditions: within 15 minutes to 2 hours against MSSA, McKay et al. 2009; cited from earlier work
smiles,measurement,setting,value
"CN[C@H](CC(C)C)C(=O)N[C@H]1C(=O)N[C@@H](CC(N)=O)C(=O)N[C@H]2C(=O)N[C@H]3C(=O)N[C@H](C(=O)N[C@H](C(=O)O)c4cc(O)cc(O)c4-c4cc3ccc4O)[C@H](O[C@H]3C[C@](C)(N)[C@@H](O)[C@H](C)O3)c3ccc(c(Cl)c3)Oc3cc2cc(c3O[C@@H]2O[C@H](CO)[C@@H](O)[C@H](O)[C@H]2O[C@H]2C[C@](C)(NCc3ccc(-c4ccc(Cl)cc4)cc3)[C@@H](O)[C@H](C)O2)Oc2ccc(cc2Cl)[C@H]1O [Oritavancin, N-(4-(4-chlorophenyl)benzyl)A82846B]",Efficacy against MSSA or MRSA strains,MSSA or MRSA strains,active against all tested strains
same,MIC90,S. aureus,0.12 µg/mL
same,MIC90,MRSA,0.12 µg/mL
same,MIC90,MSSA,0.12 µg/mL
same,% of patients cured (cure and improvement),Streptococcus agalactiae; 200 mg daily dose,33.3%
same,% of patients cured (cure and improvement),Streptococcus agalactiae; 800 mg infrequent dose,100%
same,% of patients cured (cure and improvement),Streptococcus agalactiae; 1200 mg single dose,100%
same,% of patients cured (cure and improvement),Enterococcus faecalis; 200 mg daily dose,50.0%
same,% of patients cured (cure and improvement),Enterococcus faecalis; 800 mg infrequent dose,100%
same,% of patients cured (cure and improvement),Enterococcus faecalis; 1200 mg single dose,100%
same,% of patients cured (cure and improvement),Staphylococcus aureus; 200 mg daily dose,67.4%
same,% of patients cured (cure and improvement),Staphylococcus aureus; 800 mg infrequent dose,79.5%
same,% of patients cured (cure and improvement),Staphylococcus aureus; 1200 mg single dose,78.9%
same,% of patients cured (cure and improvement),Streptococcus pyogenes; 200 mg daily dose,66.7%
same,% of patients cured (cure and improvement),Streptococcus pyogenes; 800 mg infrequent dose,100%
same,% of patients cured (cure and improvement),Streptococcus pyogenes; 1200 mg single dose,100%
same,"Bactericidal activity, log reduction",[1],≥ 3 log
